We go through six molecules from patent US20230200362A1, “MODEL ORGANISMS HUMANIZED FOR DRUG DISCOVERY AND SCREENING” (NemaMetrix, Inc, priority 2019, published 2023).

For experiment [1] the following is noted: mouse model; combination with cannabidiol; cited from earlier work.
The test system of a further experiment is pharynx::SLC6A4. Put plainly: ScreenChip pharyngeal pumping frequency in SLC6A4 transgenic C. elegans. In kind it is in vivo. Conditions: 10 mM serotonin, first-day adults, 20 minutes incubation; FIG. 2B. An excerpt: Provided herein are transgenic nematodes and methods of preparing same for expression, as well as methods for using the same drug discovery for human therapeutic targets, such as that illustrated in FIG. 1 and described in more detail herein, wherein the therapeutic target gene is first optimized for expression in a host nematode and then incorporated into the genome of the nematode. Human Solute Carrier Family 6 Member 4 (SLC6A4) is known to transport serotonin out of the synaptic space, thus terminating the action of serotonin. […] Inhibitors of SLC6A4, selective serotonin reuptake inhibitors (SSRls), are commonly used to treat major depressive disorder and anxiety but are also known to cause many unpleasant side-effects. New SSRls can be discovered using the SLC6A4 overexpressing C. elegans transgenic nematodes described in this illustrative example. As shown below, C. elegans transgenic animals overexpressing human SLC6A4 in the pharyngeal muscle show a decrease in pumping frequency when stimulated to pump by food (a mild stimulus) as compared to the wildtype. These animals can be screened to identify novel SSRls. […] Each EPG recording is two minutes in duration and the experiment is replicated in triplicate on different days. […]

The test system of the next experiment is STXBP1(R406H). Conditions: strain containing the R406H variant exposed to trehalose; cited from earlier work.
Experiment [2] addresses T1, DAF-12 (Caenorhabditis elegans, UniProt G5EFF5).
T1 construct: endogenous in cells; host or cells: whole C. elegans animals carrying lin-42::GFP or mtl-1::GFP promoter-fusion reporters
T1 sequence (G5EFF5 1-753): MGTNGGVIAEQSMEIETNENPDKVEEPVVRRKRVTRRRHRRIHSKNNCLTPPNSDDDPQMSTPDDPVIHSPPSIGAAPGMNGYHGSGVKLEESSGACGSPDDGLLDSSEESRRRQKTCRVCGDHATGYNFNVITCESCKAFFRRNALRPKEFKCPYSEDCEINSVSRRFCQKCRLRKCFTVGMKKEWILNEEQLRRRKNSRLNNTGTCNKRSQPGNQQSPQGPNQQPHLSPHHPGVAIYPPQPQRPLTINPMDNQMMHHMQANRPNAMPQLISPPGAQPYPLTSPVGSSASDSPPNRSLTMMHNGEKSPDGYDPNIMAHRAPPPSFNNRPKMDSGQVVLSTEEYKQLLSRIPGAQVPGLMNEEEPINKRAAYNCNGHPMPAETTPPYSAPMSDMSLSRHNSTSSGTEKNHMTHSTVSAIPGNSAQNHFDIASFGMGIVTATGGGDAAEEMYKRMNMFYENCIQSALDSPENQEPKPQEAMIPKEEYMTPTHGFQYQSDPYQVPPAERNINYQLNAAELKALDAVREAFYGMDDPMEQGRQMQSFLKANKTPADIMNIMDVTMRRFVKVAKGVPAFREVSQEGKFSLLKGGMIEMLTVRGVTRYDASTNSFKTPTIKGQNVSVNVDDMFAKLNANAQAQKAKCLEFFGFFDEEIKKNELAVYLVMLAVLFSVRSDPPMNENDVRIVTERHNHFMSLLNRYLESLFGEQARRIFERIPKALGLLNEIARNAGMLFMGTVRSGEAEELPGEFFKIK
Put plainly: lin-42::GFP reporter agonist response. In kind it is in vivo, C. elegans. An excerpt:
(§1) Chimeric proteins made with the daf-12 nuclear hormone receptor (NHR) can be used for discovery of agonist and antagonist of human NHRs and detect ligands of human NHRs. In C. elegans, the daf-12 protein activity is a key regulator of development. When daf-12 is activated by dafachronic acid under normal growth conditions, animals will proceed to their reproductive life stage. However, when animals face unfavorable conditions, dafachronic acid is not produced and the dauer program is activated leading animals into a stress-resistant arrested state. The unfavorable conditions can be mimicked by treatment with a DAF-12 antagonist, dafadine. Dafadine treatment overcomes the growth condition signal and animals enter the arrested state. Reporter lines can be used to monitor daf-12 chimera activity. In order to create reporter lines for agonist and antagonist discovery, the transcriptional response to treatment with dafachronic acid or dafadine was determined. Dauer animals were treated with 500 nM dafachronic acid and harvested for RNA preparation after four hours of exposure. RNA samples were processed and sent for RNA sequence analysis. […]
(§2) In this illustrative example, animals in the first larval stage were treated with 100uM dafadine for four hours and harvested for RNA preparation and analysis. Two reporter lines were identified by observation of fluorescence after drug treatment. […]

A further experiment concerns C. elegans. Briefly: phenotypic assay (% adult survival). In kind it is in vivo.
Experiment [3] addresses T1, DAF-12. Put plainly: mtl-1::GFP reporter antagonist response. In kind it is in vivo, C. elegans.
Description: as §1, §2

Read-outs that look alike come from different tables or passages of the source.

For the molecule `NC(=O)N1c2ccccc2C=Cc2ccccc21` [carbamazepine], the “interaction with CBD” value in experiment [1] was “antagonize”.

`CC[C@@H](C(N)=O)N1CCCC1=O` [levetiracetam]: the “interaction with CBD” value in experiment [1] was “acts synergistically”.

With `NCCc1c[nH]c2ccc(O)cc12` [serotonin, 5-Hydroxytryptamine], the “rate of pharyngeal pumping in SLC6A4 line” value in the experiment on pharynx::SLC6A4 was “restored”.

As for `OC[C@H]1O[C@H](O[C@H]2O[C@H](CO)[C@@H](O)[C@H](O)[C@H]2O)[C@H](O)[C@@H](O)[C@@H]1O` [trehalose], in the experiment with STXBP1(R406H), the “levels of aldicarb-induced paralysis” value is given as “increase to wild-type levels”.

As to dafachronic acid, the “sensitivity of reporter versus phenotypic assay” value on DAF-12 [2] (lin-42::GFP reporter vs phenotype) is “at least 40 x”. In addition, the EC50 (commonly the concentration that produces a half-maximal response) is around 0.49 nM on DAF-12 [2] (titrated with dafachronic acid, FIG. 3D) and 17 nM with C. elegans (dafachronic acid, FIG. 3E, read-out: EC50, animal's phenotypic response).

For dafadine, the EC50 in the experiment with C. elegans (dafadine, read-out: EC50, phenotypic assay) worked out at 48000 nM; on DAF-12 [3] (titrated with dafadine, FIG. 3C), 5200 nM. Further, the “sensitivity of reporter versus phenotypic assay” value on DAF-12 [3] (mtl-1::GFP reporter vs phenotypic assay) was 9 x.
